Columns and labels:
mtsABAD HEK293 cells [1] = test: Alamar Blue cell viability assay; assay type: cell-based, human; details: 50 μM compound
Method: Cell viability was assessed via fluorescence change using the commercially available Alamar Blue from ThermoFisher. HEK293 cells overexpressing mts17β-HSD10 were cultured in phenol-red free media (10% FBS, 1 mM sodium pyruvate, 100 units penicillin, 0.1 mg/mL streptomycin and 2 mM L-glutamine) and seeded at a density of 10,000 cells per well (100 μL, 96 well plates). […] Treated cells were then incubated at 37° C. and CO2 (5%) for 24 hours before the assay was performed as per the manufacturer's instructions. Fluorescence was measured at 530 nm excitation and 590 nm emission using a SpectraMaxM2e spectrophotometer.

mtsABAD HEK293 cells [2] = test: Lactate dehydrogenase (LDH) cytotoxicity assay; assay type: cell-based, human; details: 50 μM compound
Method: Cell cytotoxicity was assessed via the measurement of lactate dehydrogenase leakage into the culture medium using a commercially available kit from Pierce (Thermo Scientific cat no. 88953). This was carried out in accordance with the kit guidelines, with the activity of Lactate Dehydrogenase (LDH) being calculated from the change in absorbance at […] as NADH is reduced. HEK293 cells overexpressing mts17β-HSD10 were cultured in phenol-red free media (10% fetal bovine serum (FBS), 1 mM sodium pyruvate, 100 units penicillin, 0.1 mg/mL streptomycin and 2 mM L-glutamine) and seeded at a density of 10,000 cells per well (100 μL, 96 well plates). […] Treated cells were incubated at 37° C. and CO2 (5%) for 24 hours before the LDH assay was performed as per the manufacturer's instructions. Spontaneous control (water) and maximum control (lysis buffer) used in accordance with the kit guide. Absorbance was measured at 490 nm and 680 nm using a SpectraMaxM2e spectrophotometer. The measured LDH activity was used to calculate % cytotoxicity using the following equation: […]

17β-HSD10 = target: T1, 17β-HSD10 (Homo sapiens, UniProt Q99714); test: 17β-HSD10 (ABAD) enzyme inhibition assay, NADH oxidation read at 340 nm (primary screen and dose response); assay type: biochemical; details: for EC50 / Max. Effect (%) / Hill Slope / Max. Fit / Min. Fit: recombinant 17βHSD10 enzyme assay; for Hill Slope / Max. Fit / Min. Fit: curve fit
T1 construct: Histev (histidine tag with TEV site) (N, cleaved yes); made in house; host or cells: E. coli BL21-CodonPlus
T1 sequence (Q99714 1-261): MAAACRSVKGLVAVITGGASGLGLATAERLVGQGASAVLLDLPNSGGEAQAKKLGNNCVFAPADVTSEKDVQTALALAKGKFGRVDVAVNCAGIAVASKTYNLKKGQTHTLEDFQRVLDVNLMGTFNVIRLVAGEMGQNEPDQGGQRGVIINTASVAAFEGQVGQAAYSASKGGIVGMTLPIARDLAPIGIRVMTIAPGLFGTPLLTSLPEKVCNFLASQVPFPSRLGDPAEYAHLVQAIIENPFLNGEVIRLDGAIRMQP
How it was run: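 Tag-cleaved recombinant human 17β-HSD10 (2.5 nM) preincubated 15 min with compound in Tris pH 7.4, NaCl, DTT, Tween, BSA (catalase in some runs), then 100 μM acetoacetyl-CoA and NADH added. NADH oxidation by A340 fall: 35 min endpoint for screening at 10 μM; continuous 45 min for dose response.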

| Compound | Alamar Blue % Viability (50 μM Dose) (mtsABAD HEK293 cells [1]) | LDH % Toxicity (50 μM Dose) (mtsABAD HEK293 cells [2]) | EC50 (17β-HSD10) | Max. Effect (%) (17β-HSD10) | Hill Slope (17β-HSD10) | Max. Fit (17β-HSD10) | Min. Fit (17β-HSD10) | Alamar Blue % Viability (50 μM Dose) (mtsABAD HEK293 cells [1]; listed as ESC1002203-01) | LDH % Toxicity (50 μM Dose) (mtsABAD HEK293 cells [2]; listed as ESC1002203-01) | 17β-HSD10 / ABAD activity in words (SAR discussion) (17β-HSD10) | fold less potent than ESC1002033 (17β-HSD10) |
| --- | --- | --- | --- | --- | --- | --- | --- | --- | --- | --- | --- |
| COc1ccc(-c2ccccc2[C@H]2CCCN2C(=O)c2ccccc2F)cn1 (stereo in doubt) [ESC1002119, (2-fluorophenyl)-[2-[2-(6-methoxy-3-pyridyl)phenyl]pyrrolidin-1-yl]methanone] | 79.180% | 4.780% | 4.17 µM | 64% | 1.3 | 57 | 0 |  |  |  |  |
| CC(C)CN(C(=O)c1ccccc1)c1cccc(N(C)Cc2cnc[nH]2)c1 [ESC1002169, N-[3-[1H-imidazol-5-ylmethyl(methyl)amino]phenyl]-N-isobutyl-benzamide] | 84.229% | 4.554% | 0.646 µM | 97% | 1.1 | 98 | 0 |  |  |  |  |
| Cc1ccccc1-c1ccccc1[C@@H]1CCCN1C(=O)c1sccc1C [ESC1002323] | 96.19% | 5.03% | 0.468 µM | 106% | 1.4 | 101 | 7 |  |  |  |  |
| Cc1ccsc1C(=O)N1CCC[C@@H]1c1ccccc1-c1cccnc1 [ESC1002090] | 102.627% | 5.162% | 1.15 µM | 94% | 1.1 | 97 | 0 |  |  |  |  |
| Cc1ccsc1C(=O)N1CCC[C@H]1c1ccccc1-c1cccc(C)c1C [ESC1002339] | 82.52% | 4.39% | 0.525 µM | 99% | 1.4 | 97 | 7 |  |  |  |  |
| CC(C)CN(C(=O)c1ccccc1F)c1cccc(N(C)Cc2ncc[nH]2)c1 [ESC1002201] | 80.481% | 5.842% | > 20 µM | 41% |  |  |  |  |  |  |  |
| Cc1ncc(CN(C)c2cccc(N(CC(C)C)C(=O)c3ccccc3F)c2)[nH]1 [ESC1002203] |  |  | 0.525 µM | 97% | 1.1 | 98 | 0 | 87.491% | 6.638% | only slightly reduced ABAD inhibition levels | approximately 3 fold |
| CC(C)CN(C(=O)c1ccccc1F)c1cccc(N(C)Cc2nccn2C)c1 [ESC1002202] | 81.531% | 2.542% | 10 µM | 57% | 1.3 | 79 | 0 |  |  |  |  |
| CC(C)CN(C(=O)c1ccccc1F)c1cccc(N(C)Cc2ccncc2)c1 [ESC1002211] | 82.553% | 5.501% | > 20 µM | 40% |  |  |  |  |  |  |  |
| COc1ccc(-c2ccccc2[C@H]2CCCN2C(=O)c2sccc2C)cc1 (single isomer, unassigned) [ESC1002331] | 88.56% | 5.88% |  |  |  |  |  |  |  |  |  |
| Cc1ccsc1C(=O)N1CCC[C@@H]1c1ccccc1-c1ccn[nH]1 [ESC1002091] | 84.920% | 5.395% | 3.16 µM | 84% | 1.2 | 93 |  |  |  |  |  |
| CN(Cc1c[nH]cn1)c1cccc(N(CC2CCC2)C(=O)c2ccccc2F)c1 [ESC1002265] | 80.52% | 4.52% | 0.955 µM | 96% | 1.1 | 99 | 0 |  |  |  |  |
| CC(C)CN(C(=O)c1ccc(Cl)cc1)c1cccc(N(C)Cc2cnc[nH]2)c1 [ESC1002183, 4-chloro-N-[3-[1H-imidazol-5-ylmethyl(methyl)amino]phenyl]-N-isobutyl-benzamide] | 89.373% | 5.082% | 0.776 µM | 95% | 1.2 | 97 | 0 |  |  |  |  |
| COCCN(C(=O)c1ccccc1F)c1cccc(N(C)Cc2c[nH]cn2)c1 [ESC1002266, 2-fluoro-N-[3-[1H-imidazol-4-ylmethyl(methyl)amino]phenyl]-N-(2-methoxyethyl)benzamide] | 89.86% | 5.22% | 6.46 µM | 74% | 0.98 | 100 | −4 |  |  |  |  |
| Cc1ccc(-c2ccccc2[C@@H]2CCCN2C(=O)c2sccc2C)cc1 [ESC1002337] | 85.13% | 4.10% | 0.209 µM | 102% | 1.3 | 99 | −7 |  |  |  |  |
| CC(=O)N(CC(C)C)c1cccc(N(C)Cc2cnc[nH]2)c1 [ESC1002171, N-[3-[1H-imidazol-5-ylmethyl(methyl)amino]phenyl]-N-isobutyl-acetamide] | 86.843% | 5.933% | > 20 µM | 34% |  |  |  |  |  |  |  |
| COc1ccccc1-c1ccccc1[C@@H]1CCCN1C(=O)c1sccc1C [ESC1002325] | 89.12% | 4.36% | 0.309 µM | 98% | 0.87 | 100 | −11 |  |  |  |  |
| COCCn1cnc(CN(C)c2cccc(NC(=O)c3ccccc3F)c2)c1 [ESC1002163] | 78.775% | 4.975% | > 20 µM | 0% |  |  |  |  |  |  |  |
| COc1ccc(-c2ccccc2[C@H]2CCCN2C(=O)c2ccc(C)cc2)cn1 (stereo in doubt) [ESC1002120, [2-[2-(6-methoxy-3-pyridyl)phenyl]pyrrolidin-1-yl]-(p-tolyl)methanone] | 81.743% | 4.611% | > 20 µM | 13% |  |  |  |  |  |  |  |
| CC(C)CN(C(=O)c1ccccc1F)c1cccc(N(C)Cc2cn[nH]c2)c1 [ESC1002205-02] | 89.638% | 5.243% |  |  |  |  |  |  |  |  |  |
| O=C(c1ccon1)N1CCC[C@H]1c1ccccc1 [S1−T5, 3-{[(2S)-2-phenylpyrrolidin-1-yl]carbonyl}-1,2-oxazole] |  |  | > 20 µM | 27.5% |  |  |  |  |  |  |  |
